Data from ChEMBL document CHEMBL5252665, “The Identification of GPR52 Agonist HTL0041178, a Potential Therapy for Schizophrenia and Related Psychiatric Disorders” (ACS Med Chem Lett, 2023).

Key:
[1] = Metabolic stability in rat liver microsomes assessed as intrinsic clearance preincubation with compound followed by NADPH addition and measured after 45 mins by LC-MS/MS analysis; type: ADME, Microsome; conditions: read-out: CLH
[2] = Metabolic stability in human liver microsomes assessed as intrinsic clearance preincubation with compound followed by NADPH addition and measured after 45 mins by LC-MS/MS analysis; type: ADME, Microsome; conditions: read-out: CLH
[3] = Octanol-water partition coefficient, log D of the compound by chromatographic method; type: physicochemical
[4] = Apparent permeability of compound across apical to basolateral side in dog MDCK-MDR1 cells incubated for 1 hr by LC-MS/MS analysis; type: ADME, cell-based, Canis lupus familiaris
[5] = Lipophilicity, logP of the compound by shake flask assay; type: physicochemical; conditions: octanol/water
[6] = Clearance in Sprague-Dawley rat plasma at 1 mg/kg,iv by LC-MS/MS analysis; type: ADME, organism-based
[7] = Half life in Sprague-Dawley rat at 1 mg/kg,iv by LC-MS/MS analysis; type: ADME, organism-based; conditions: in vivo
[8] = Volume of distribution at steady state in Sprague-Dawley rat at 1 mg/kg,iv by LC-MS/MS analysis; type: ADME, organism-based; conditions: in vivo, read-out: Vdss
[9] = Cmax in Sprague-Dawley rat at 3 mg/kg,po by LC-MS/MS analysis; type: ADME, organism-based; parameters: dose 3 mg/kg, route po; conditions: in vivo
[10] = AUC (0 to infinity) in Sprague-Dawley rat at 1 mg/kg,iv by LC-MS/MS analysis; type: ADME, organism-based; parameters: dose 1 mg/kg, route iv; conditions: in vivo
[11] = Oral absorption in Sprague-Dawley rat at 3 mg/kg by LC-MS/MS analysis; type: ADME, organism-based; conditions: in vivo
[12] = AUC (0 to infinity) in Sprague-Dawley rat at 3 mg/kg,po by LC-MS/MS analysis; type: ADME, organism-based; parameters: dose 3 mg/kg, route po; conditions: in vivo
[13] = Oral bioavailability in Sprague-Dawley rat at 3 mg/kg by LC-MS/MS analysis; type: ADME, organism-based; conditions: in vivo
[14] = Unbound brain-to-plasma concentration ratio in Sprague-Dawley rat plasma at 1 mg/kg,iv by LC-MS/MS analysis; type: ADME, organism-based; conditions: brain and plasma, read-out: K(p,uu,brain)
[15] = Oral bioavailability in cynomolgus monkey at 3 mg/kg by LC-MS/MS analysis; type: ADME, organism-based, Macaca fascicularis; conditions: in vivo
[16] = Terminal free brain concentration in Sprague-Dawley rat model of amphetamine-induced hyperlocomotion activity at 10 mg/kg, po measured after 2 hrs by LC-MS/MS analysis; type: ADME, organism-based; conditions: in vivo
[17] = AUC (0 to infinity) in CD-1 mouse at 3 mg/kg,po by LC-MS/MS analysis; type: ADME, organism-based; parameters: dose 3 mg/kg, route po; conditions: in vivo
[18] = AUC (0 to infinity) in CD-1 mouse at 1 mg/kg,iv by LC-MS/MS analysis; type: ADME, organism-based; parameters: dose 1 mg/kg, route iv; conditions: in vivo
[19] = Oral bioavailability in CD-1 mouse at 3 mg/kg by LC-MS/MS analysis; type: ADME, organism-based; conditions: in vivo
[20] = Volume of distribution at steady state in CD-1 mouse at 1 mg/kg,iv by LC-MS/MS analysis; type: ADME, organism-based; conditions: in vivo, read-out: Vdss
[21] = Oral absorption in CD-1 mouse at 3 mg/kg by LC-MS/MS analysis; type: ADME, organism-based; conditions: in vivo
[22] = AUC (0 to infinity) in cynomolgus monkey at 1 mg/kg,iv by LC-MS/MS analysis; type: ADME, organism-based, Macaca fascicularis; parameters: dose 1 mg/kg, route iv; conditions: in vivo
[23] = Clearance in CD-1 mouse plasma at 1 mg/kg,iv by LC-MS/MS analysis; type: ADME, organism-based
[24] = AUC (0 to infinity) in cynomolgus monkey at 3 mg/kg,po by LC-MS/MS analysis; type: ADME, organism-based, Macaca fascicularis; parameters: dose 3 mg/kg, route po; conditions: in vivo
[25] = Half life in CD-1 mouse at 1 mg/kg,iv by LC-MS/MS analysis; type: ADME, organism-based; conditions: in vivo
[26] = Clearance in cynomolgus monkey plasma at 1 mg/kg,iv by LC-MS/MS analysis; type: ADME, organism-based, Macaca fascicularis
[27] = Terminal brain concentration in Sprague-Dawley rat model of amphetamine-induced hyperlocomotion activity at 10 mg/kg, po measured after 2 hrs by LC-MS/MS analysis; type: ADME, organism-based; conditions: read-out: Clast
[28] = Oral absorption in cynomolgus monkey at 3 mg/kg by LC-MS/MS analysis; type: ADME, organism-based, Macaca fascicularis; conditions: in vivo, read-out: Drug absorption
[29] = Half life in cynomolgus monkey at 1 mg/kg,iv by LC-MS/MS analysis; type: ADME, organism-based, Macaca fascicularis; conditions: in vivo
[30] = Cmax in cynomolgus monkey at 3 mg/kg,po by LC-MS/MS analysis; type: ADME, organism-based, Macaca fascicularis; parameters: dose 3 mg/kg, route po; conditions: in vivo
[31] = Volume of distribution at steady state in cynomolgus monkey at 1 mg/kg,iv by LC-MS/MS analysis; type: ADME, organism-based, Macaca fascicularis; conditions: in vivo, read-out: Vdss
[32] = Cmax in CD-1 mouse at 3 mg/kg,po by LC-MS/MS analysis; type: ADME, organism-based; parameters: dose 3 mg/kg, route po; conditions: in vivo

Compound: O=C1NCCCc2c1cnn2-c1ccnc(Cc2cc(F)cc(C(F)(F)F)c2)c1
- microsomal CLint [1]: 102 µL/min/mg
- microsomal CLint [2]: 21 µL/min/mg
- chromatographic logD [3]: 4.2

Compound: O=C1NCCc2c1cnn2-c1cncc(Cc2cc(F)cc(C(F)(F)F)c2)c1
- Papp A→B at 1 h [4]: 38 ×10⁻⁶ cm/s
- microsomal CLint [1]: 25 µL/min/mg
- microsomal CLint [2]: < 10 µL/min/mg
- chromatographic logD [3]: 3.8
- logP [5]: 4

Compound: Cc1nn(-c2ccnc(Cc3cc(F)cc(C(F)(F)F)c3)c2)c2c1C(=O)NCC2
- Papp A→B at 1 h [4]: 46 ×10⁻⁶ cm/s
- microsomal CLint [1]: 40 µL/min/mg
- microsomal CLint [2]: 31 µL/min/mg
- chromatographic logD [3]: 4.4

Compound: Cc1nn(-c2cncc(Cc3cc(F)cc(C(F)(F)F)c3)c2)c2c1C(=O)NCC2
- Papp A→B at 1 h [4]: 48 ×10⁻⁶ cm/s
- microsomal CLint [1]: 63 µL/min/mg
- microsomal CLint [2]: 27 µL/min/mg
- chromatographic logD [3]: 4.1

Compound: O=C1CCCc2c1cnn2-c1cc(Cc2cccc(C(F)(F)F)c2)ccn1
- Papp A→B at 1 h [4]: 25 ×10⁻⁶ cm/s
- microsomal CLint [1]: 120 µL/min/mg
- microsomal CLint [2]: 50 µL/min/mg
- chromatographic logD [3]: 6.7

Compound: O=C1NCCc2nn(-c3ccnc(Cc4cc(F)cc(C(F)(F)F)c4)c3)cc21
- chromatographic logD [3]: 4.4

Compound: O=C1NCCc2c1nnn2-c1ccnc(Cc2cc(F)cc(C(F)(F)F)c2)c1
- chromatographic logD [3]: 4

Compound: Cc1nn(-c2ccnc(Cc3cc(F)cc(OC(F)F)c3)c2)c2c1C(=O)NCC2
- Papp A→B at 1 h [4]: 32 ×10⁻⁶ cm/s
- microsomal CLint [1]: 63 µL/min/mg
- microsomal CLint [2]: 34 µL/min/mg
- chromatographic logD [3]: 3.9

Compound: O=C1NCCc2c1cnn2-c1cc(Cc2cc(F)cc(C(F)(F)F)c2)ccn1
- Papp A→B at 1 h [4]: 32 ×10⁻⁶ cm/s
- microsomal CLint [1]: 30 µL/min/mg
- microsomal CLint [2]: 15 µL/min/mg
- chromatographic logD [3]: 5.1
- logP [5]: 3.1

Compound: CN1CCc2c(cnn2-c2cc(Cc3cc(F)cc(C(F)(F)F)c3)ccn2)C1=O
- Papp A→B at 1 h [4]: 30 ×10⁻⁶ cm/s
- microsomal CLint [1]: 33 µL/min/mg
- microsomal CLint [2]: 62 µL/min/mg
- chromatographic logD [3]: 5.8

Compound: O=C1NCc2c1cnn2-c1ccnc(Cc2cc(F)cc(C(F)(F)F)c2)c1
- chromatographic logD [3]: 4

Compound: Cc1nn(-c2ccnc(Cc3cc(F)cc(C(F)F)c3)c2)c2c1C(=O)NCC2
- Papp A→B at 1 h [4]: 28 ×10⁻⁶ cm/s
- microsomal CLint [1]: 71 µL/min/mg
- microsomal CLint [2]: 32 µL/min/mg
- chromatographic logD [3]: 3.6

Compound: O=C1NCCc2c1cnn2-c1cc(Cc2cccc(C(F)(F)F)c2)ccn1
- Papp A→B at 1 h [4]: 46 ×10⁻⁶ cm/s
- clearance [6]: 39 mL/min/kg
- half-life [7]: 0.6 h
- microsomal CLint [1]: 46 µL/min/mg
- Vd [8]: 1.5 L/kg
- Cmax [9]: 143 ng/mL
- AUC(0-inf) [10]: 440 ng·h/mL
- microsomal CLint [2]: < 10 µL/min/mg
- chromatographic logD [3]: 4.9
- Fa [11]: > 100%
- AUC(0-inf) [12]: 709 ng·h/mL
- bioavailability [13]: 54%
- Kp uu [14]: 0.4

Compound: O=C1NCCc2c1cnn2-c1ccnc(Cc2cc(F)cc(C(F)(F)F)c2)c1
- Papp A→B at 1 h [4]: 48 ×10⁻⁶ cm/s
- F [15]: 81%
- clearance [6]: 16 mL/min/kg
- Drug uptake(free) [16]: 41.2 nM
- AUC(0-inf) [17]: 5910 ng·h/mL
- half-life [7]: 0.8 h
- AUC(0-inf) [18]: 2610 ng·h/mL
- microsomal CLint [1]: 25 µL/min/mg
- Vd [8]: 1 L/kg
- bioavailability [19]: 95%
- Cmax [9]: 285 ng/mL
- AUC(0-inf) [10]: 1020 ng·h/mL
- Vd [20]: 1.5 L/kg
- Fa [21]: 80%
- AUC [22]: 7854 ng·h/mL
- microsomal CLint [2]: 11 µL/min/mg
- chromatographic logD [3]: 3.9
- Fa [11]: 52%
- clearance [23]: 6 mL/min/kg
- AUC [24]: 6327 ng·h/mL
- half-life [25]: 3.4 h
- clearance [26]: 2 mL/min/kg
- concentration at 2 h [27]: 1560 nM
- Fa [28]: 85%
- half-life [29]: 8 h
- AUC(0-inf) [12]: 1260 ng·h/mL
- logP [5]: 4.2
- Cmax [30]: 581 ng/mL
- bioavailability [13]: 40%
- Vd [31]: 1.4 L/kg
- Cmax [32]: 486 ng/mL
- Kp uu [14]: 0.35

Compound: O=C1NCCc2c1cnn2-c1cccc(Cc2cc(F)cc(C(F)(F)F)c2)c1
- microsomal CLint [1]: 48 µL/min/mg
- microsomal CLint [2]: < 10 µL/min/mg
- chromatographic logD [3]: 5

Compound: O=C1NCCc2c1cnn2-c1ccnc(Cc2cc(F)cc(C(F)F)c2)c1
- Papp A→B at 1 h [4]: 30 ×10⁻⁶ cm/s
- microsomal CLint [1]: 37 µL/min/mg
- microsomal CLint [2]: 15 µL/min/mg
- chromatographic logD [3]: 3.3

Compound: O=C1NCCc2c1cnn2-c1ccnc(Cc2cc(F)c(Cl)c(C(F)(F)F)c2)c1
- microsomal CLint [1]: 57 µL/min/mg
- microsomal CLint [2]: 24 µL/min/mg
- chromatographic logD [3]: 4.6
